Assay results from patent publication US8138196B2, “Antifungal wallboards and building materials and methods for the production thereof” (Syngenta Crop Protection, Inc., priority 2005, dated 2012).
“And” between values parts separate entries of the source, which are not always exact repeats. Identical values can stand only once.

Assays:
Format in all cases: cell-based
[1] = system: Aureobasidium pullulans (ATCC 15233); assay: Example 3 liquid culture assay on 24 well plates, solo and 2-way mixtures
Source text: (§1) Alternaria tenuissima (DSM 63360), Penicillium chrysogenum (DSM 895), Stachybotrys chartarum (DSM2144), Aspergillus niger (DSM 63263), Aspergillus versicolor (DSM 1943) and Aureobasidium pullulans (ATCC 15233) were separately cultivated on PDA media to […] sporulation. Spore suspensions were produced for each fungi. Spore concentrations of approx. 100.000 spores/ml were used.
(§2) Test method used: liquid culture assay on 24 well plates.
(§3) For solo (i.e. single) ai testing the formulated fungicide (100 ul) was filled into the 24 well plates and 100 ul distilled water was added. Afterwards 800 ul of 0.3% AE media was added to the plate. The spore suspension of the specific fungi was added to this media in advance containing approx. 100,000 spores/ml. The 24 well plates were sealed and incubated at 24° C.
(§4) Dependent on the growth properties of each organisms, the evaluation was done after 3 to 6 days, when the surface of the check well was covered with mycelium. The evaluation was performed by assessing the growth of the fungi related to the check growth. The results are expressed as % activity relative to the check (values of 0-100% growth). Afterwards the results were converted in % O growth inhibition.
(§5) For synergism testing of the 2-way mixtures 100 ul of each fungicide were filled into 24 well plates and 800 ul of 0.3% AE media containing the spore suspension was added. Different ratios of the 2 fungicide rates were tested at the same time.
(§6) For the mixtures of different fungicides the synergism was calculated based on the Colby equation, which is described below: […]
(§7) The fungicidal action to be expected, We, for a given combination of two fungicides can be calculated as follows (see COLBY, S. R. “Calculating synergistic and antagonistic response of herbicide combinations”. Weeds 15, pages 20-22; 1967): We=X+[Y×(100−X)/100] wherein: • X=% activity in the case of treatment with the compound of formula I at rate x, in comparison with untreated control (=0%). • Y=% activity in the case of treatment with a compound of formula II at rate y, in comparison with untreated control. • We=expected activity (% activity in comparison with untreated control) after treatment with the compound of formula I and a compound of formula II at a rate of x+y kg of active ingredient.
(§8) If the activity actually observed is greater than the expected value We (factor observed activity/expected activity >1.2), there is a synergistic effect.

[2] = system: Aspergillus versicolor (DSM 1943); assay: Example 4 liquid culture assay on 24 and 48 well plates, 3 way mixtures; conditions: test 006-2005, A. versicolor
Source text: as §1, with “For test 006-2005: Alternaria” for “Alternaria”, “Cladosporium cladosporoides (DSM62121),” for “Stachybotrys chartarum (DSM2144),”, “fungus.” for “fungi.”, “100,000” for “100.000”
(§9) Test method used: liquid culture assay on 24 and 48 well plates respectively.
(§10) For testing of the 3 way mixtures each of the formulated fungicide (100 ul) was filled into the 24 and 48 well plates respectively. Afterwards 700 ul of 0.3% AE media was added to the plate. The spore suspension of the specific fungi was added to this media in advance containing approx. 100,000 spores/ml. For testing the solo compounds the equivalent of distilled water was added instead of the formulated fungicide volume of the mixing partners. The plates were then sealed and incubated at 24° C.
as §4, with “%” for “% O”
(§11) For the mixtures of different fungicides the synergism was calculated based on the Colby equation, which is described above.

[3] = system: Alternaria tenuissima (DSM 63360); assay: as above; conditions: A. tenuissima
Source text: as §1, with “For test 006-2005: Alternaria” for “Alternaria”, “Cladosporium cladosporoides (DSM62121),” for “Stachybotrys chartarum (DSM2144),”, “fungus.” for “fungi.”, “100,000” for “100.000”
(§12) […] Spore suspensions were produced for each fungus. Spore concentrations of approx. 100,000 spores/ml were used.
as §9, §10
as §4, with “%” for “% O”
as §11

[4] = system: Stachybotrys chartarum (DSM 2144); assay: as above; conditions: test 015-2005, S. chartarum
Protocol: as §12, §9, §10
as §4, with “%” for “% O”
as §11

[5] = system: Aspergillus niger (DSM 63263); assay: Example 3 liquid culture assay on 24 well plates, solo and 2-way mixtures; conditions: test 006-2005
Source text: as §1, §2, §3, §4, §5, §6, §7, §8

[6] = system: Alternaria tenuissima (DSM 63360); assay: as above
Source text: as §1, §2, §3, §4, §5, §6, §7, §8

[7] = system: Penicillium chrysogenum (DSM 895); assay: as above; conditions: test 006-2005
Source text: as §1, §2, §3, §4, §5, §6, §7, §8

[8] = system: Aspergillus versicolor (DSM 1943); assay: as above; conditions: test 006-2005; rate (FDL) 0.05 mg ai/l
Source text: as §1, §2, §3, §4, §5, §6, §7, §8

[9] = system: Aspergillus niger (DSM 63263); assay: Example 4 liquid culture assay on 24 and 48 well plates, 3 way mixtures; conditions: A. niger
Source text: as §1, with “For test 006-2005: Alternaria” for “Alternaria”, “Cladosporium cladosporoides (DSM62121),” for “Stachybotrys chartarum (DSM2144),”, “fungus.” for “fungi.”, “100,000” for “100.000”
For test 015-2006: Alternaria tenuissima (DSM 63360), Penicillium pinophilum (CBS342.61), Gliocladium virens (DSM1963), Aspergillus niger (DSM 63263), Stachybotrys chartarum (DSM 2144) and Aureobasidium pullulans (ATCC 15233) were separately cultivated on PDA media to […] sporulation. Spore suspensions were produced for each fungus. Spore concentrations of approx. 100,000 spores/ml were used.
as §9, §10
as §4, with “%” for “% O”
as §11

Coniophora puteana = assay: radial mycelial growth on fungicide amended agar; conditions: estimated from graph of % activity (radial mycelial growth relative to agar without fungicide) against concentration
Protocol: Stem cultures of Coniophora puteana were produced by propagating the fungus on a growth medium comprising yeast extract (10 g), glycerol (20 ml), magnesium sulphate (0.5 g), sodium nitrate (6.0 g), potassium chloride (0.5 g), potassium dihydrogen orthophosphate (1.5 g), agar (20 g) in distilled water (980 ml).
Fungicides were added at levels of 5000, 100, 10, 1, 0.1 and 0.01 mg fungicide/litre of growth medium (described above) to give […] different growth medium compositions for each fungicide. Mycelial plugs were taken from the stem cultures and transferred upside down onto petri dishes containing the fungicide amended agar.
The radial mycelial growth of the fungus was measured individually on all test petri dishes. The results are expressed as % activity relative to the radial growth on agar without fungicide.
For each fungicide, a graph was drawn of percentage activity against concentration of fungicide in the growth medium. From this graph, the concentrations of fungicide required to achieve 80% activity was estimated. These figures are given in the results table.

[10] = system: Stachybotrys chartarum (DSM2144); assay: Example 3 liquid culture assay on 24 well plates, solo and 2-way mixtures; conditions: test 006-2005
Source text: as §1, §2, §3, §4, §5, §6, §7, §8

CC1COC(Cn2cncn2)(c2ccc(Oc3ccc(Cl)cc3)cc2Cl)O1 (centres unmarked) [Difenoconazole]
inh % (DFZ alone) ([1]; test 006-2005, rate (DFZ) 3.12 mg ai/l): 70%

N#Cc1c[nH]cc1-c1cccc2c1OC(F)(F)O2 [Fludioxonil]
inh % (FDL alone) ([2]; FDL 0.2 mg ai/l): 0% | inh % (FDL alone) ([2]; FDL 0.8 mg ai/l): 0% | inh % (FDL alone) ([2]; FDL 1.6 mg ai/l): 0% | inh % (FDL alone) ([3]; test 006-2005, FDL 0.2 mg ai/l): 50% | inh % (FDL alone) ([3]; test 006-2005, FDL 0.8 mg ai/l): 70% | inh % (FDL alone) ([3]; test 006-2005, FDL 1.6 mg ai/l): 70% | inh % (FDL alone) ([3]; test 015-2005, FDL 0.8 mg ai/l): 50% | inh % (FDL alone) ([3]; test 015-2005, FDL 1.6 mg ai/l): 50% | inh % (FDL alone) ([4]; FDL 0.05 mg ai/l): 10% | inh % (FDL alone) ([4]; FDL 0.2 mg ai/l): 50% | inh % (FDL alone) ([5]; rate (FDL) 0.2 mg ai/l): 50% | inh % (FDL alone) ([5]; rate (FDL) 0.8 mg ai/l): 70% | inh % (FDL alone) ([5]; rate (FDL) 1.6 mg ai/l): 70% | inh % (FDL alone) ([5]; rate (FDL) 3.12 mg ai/l): 70% | inh % (FDL alone) ([5]; rate (FDL) 12.5 mg ai/l): 70% | inh % (FDL alone) ([6]; test 006-2005, rate (FDL) 0.2 mg ai/l): 70% | inh % (FDL alone) ([6]; test 015-2005, rate (FDL) 0.2 mg ai/l): 30% | inh % (FDL alone) ([6]; test 015-2005, rate (FDL) 0.4 mg ai/l): 30% | inh % (FDL alone) ([6]; test 015-2005, rate (FDL) 0.8 mg ai/l): 30% | inh % (FDL alone) ([6]; test 015-2005, rate (FDL) 1.6 mg ai/l): 50% | inh % (FDL alone) ([6]; test 015-2005, rate (FDL) 3.1 mg ai/l): 50% | inh % (FDL alone) ([6]; test 015-2005, rate (FDL) 6.25 mg ai/l): 50% | inh % (FDL alone) ([6]; test 015-2005, rate (FDL) 12.5 mg ai/l): 70% | inh % (FDL alone) ([6]; test 015-2005, rate (FDL) 25 mg ai/l): 70% | inh % (FDL alone) ([6]; test 015-2005, rate (FDL) 50 mg ai/l): 70% | inh % (FDL alone) ([6]; test 015-2005, rate (FDL) 100 mg ai/l): 70% | inh % (FDL alone) ([6]; test 015-2005, rate (FDL) 200 mg ai/l): 50% | inh % (FDL alone) ([7]; rate (FDL) 0.05 mg ai/l): 0% | inh % (FDL alone) ([7]; rate (FDL) 0.2 mg ai/l): 50% | inh % (FDL alone) [8]: 10% | inh % (FDL alone) ([9]; test 006-2005, FDL 0.8 mg ai/l): 50% | inh % (FDL alone) ([9]; test 015-2005, FDL 0.8 mg ai/l): 50% | inh % (FDL alone) ([9]; test 015-2005, FDL 1.6 mg ai/l): 50% | inh % (FDL alone) ([9]; test 015-2005, FDL 3.1 mg ai/l): 50%

CCCC1COC(Cn2cncn2)(c2ccc(Cl)cc2Cl)O1 (centres unmarked) [Propiconazole]
Concentration required for 80% Activity (Coniophora puteana): 1.8 mg/L | inh % (PPZ alone) ([10]; rate (PPZ) 0.8 mg ai/l): 0% | inh % (PPZ alone) ([10]; rate (PPZ) 1.6 mg ai/l): 10% | inh % (PPZ alone) ([10]; rate (PPZ) 3.12 mg ai/l): 10% | inh % (PPZ alone) ([1]; test 006-2005, rate (PPZ) 1.6 mg ai/l): 70% | inh % (PPZ alone) ([1]; test 006-2005, rate (PPZ) 3.12 mg ai/l): 70% | inh % (PPZ alone) ([1]; test 006-2005, rate (PPZ) 12.5 mg ai/l): 70% | inh % (PPZ alone) ([1]; test 015-2005, rate (PPZ) 25 mg ai/l): 50% | inh % (PPZ alone) ([1]; test 015-2005, rate (PPZ) 50 mg ai/l): 70%

c1ccc2[nH]c(-c3cscn3)nc2c1 [Thiabendazole]
inh % (TBZ alone) ([2]; TBZ 0.2 mg ai/l): 0% | inh % (TBZ alone) ([2]; TBZ 0.8 mg ai/l): 0% | inh % (TBZ alone) ([2]; TBZ 1.6 mg ai/l): 10% | inh % (TBZ alone) ([3]; test 006-2005, TBZ 0.2 mg ai/l): 0% | inh % (TBZ alone) ([3]; test 006-2005, TBZ 0.8 mg ai/l): 0% | inh % (TBZ alone) ([3]; test 006-2005, TBZ 1.6 mg ai/l): 0% | inh % (TBZ alone) ([3]; test 015-2005, TBZ 0.2 mg ai/l): 0% | inh % (TBZ alone) ([3]; test 015-2005, TBZ 1.6 mg ai/l): 0% | inh % (TBZ alone) ([3]; test 015-2005, TBZ 3.1 mg ai/l): 0% | inh % (TBZ alone) ([3]; test 015-2005, TBZ 6.25 mg ai/l): 0% | inh % (TBZ alone) ([3]; test 015-2005, TBZ 25 mg ai/l): 0% | inh % (TBZ alone) ([3]; test 015-2005, TBZ 100 mg ai/l): 0% | inh % (TBZ alone) ([4]; TBZ 3.1 mg ai/l, listed as TBZ): 0% and 10% | inh % (TBZ alone) ([4]; TBZ 6.25 mg ai/l): 10% | inh % (TBZ alone) ([4]; TBZ 25 mg ai/l): 30% | Concentration required for 80% Activity (Coniophora puteana): >5000 mg/L | inh % (TBZ alone) ([6]; test 015-2005, rate (TBZ) 12.5 mg ai/l): 0% | inh % (TBZ alone) ([6]; test 015-2005, rate (TBZ) 25 mg ai/l): 0% | inh % (TBZ alone) ([6]; test 015-2005, rate (TBZ) 50 mg ai/l): 0% | inh % (TBZ alone) ([6]; test 015-2005, rate (TBZ) 100 mg ai/l): 0% | inh % (TBZ alone) ([6]; test 015-2005, rate (TBZ) 200 mg ai/l): 0% | inh % (TBZ alone) ([9]; test 006-2005, TBZ 0.8 mg ai/l): 0% | inh % (TBZ alone) ([9]; test 015-2005, TBZ 0.2 mg ai/l): 0% | inh % (TBZ alone) ([9]; test 015-2005, TBZ 0.8 mg ai/l): 0%
